# Like-named read-outs stand apart in the source and are kept apart here.
# How the values were obtained:
# [1] = system: kératinocytes humains oraux; test: ELISA of IL-8, hBD-2 and MMP-9 secreted by oral keratinocytes stimulated with IL-17, IL-22 and TNF-alpha; type: cell-based; conditions: 48h stimulation; for inhibition at 10 µM: Keratinocyte
# Procedure: (§1) • L'échantillon « Extrait CCV » est obtenu tel que décrit dans l'exemple 1 et est dilué dans du DMSO 0,4% afin d'obtenir une concentration en célastrol de 137 µg/mL; trois doses sont testées, à savoir 10, 30 et 100 ng/mL. • L'échantillon « Célastrol » 150 µg/mL dans du DMSO 0,4 %; trois doses sont testées à savoir 10, 30 et 100 ng/mL.
# (§2) Les échantillons contrôles sont les suivants : • L'échantillon témoin négatif « DMSO » (DMSO à 0,4%); et • L'échantillon témoin positif « Inhibiteur JAK » comprenant 10 µM d'inhibiteur JAK (JAK Inhibitor I - CAS 457081-03-7 - Calbiochem).
# (§3) La lignée cellulaire utilisée est une lignée de kératinocytes humains oraux (CliniSciences ref.2610-SC). Cette lignée est cultivée à 37 °C, sous atmosphère 5 % de CO2 dans un milieu adapté (Oral Keratinocyte medium OKM supplémenté avec de la pénicilline 100 U/mL et de la streptomycine 100 µg/mL).
# (§4) Les kératinocytes humains oraux sont ensemencés dans des puits de plaques à 24 puits (75 000 cellules/puits) et cultivés pendant 24h. Le milieu de culture est alors remplacé par du milieu frais contenant les échantillons à tester, et les cellules sont à nouveau incubées pendant 24h. L'opération est renouvelée à nouveau en présence d'un mix de cytokines stimulatrice des kératinocytes : IL-17, IL-22 et TNF-alpha à 3 ng/ml chacune. Le temps de culture est de 24h pour les expériences de RT-pPCR et de 48 pour les expériences d'ELISA. Les cellules sont ensuite lavées dans une solution de PBS et congelées immédiatement à - 80 °C.
# (§5) Les expériences ont été réalisées en triplicats.
# La quantité d'IL8, hBD-2 (DEBF4A) et de MMP-9 sécrétée par les kératinocytes dans le milieu de culture après 48h de stimulation est mesurée par ELISA.
# [2] = system: kératinocytes humains oraux; test: RT-qPCR of inflammatory marker expression in oral keratinocytes stimulated with IL-17, IL-22 and TNF-alpha; type: cell-based
# Procedure: as §1, §2, §3, §4, §5
# L'expression des marqueurs IL-8, CXCL1, DEBF4A, S100A7, IL-36 gamma et MMP9, par les kératinocytes est déterminée par RT-qPCR comme décrit dans la littérature avec des kits de Reverse transcriptase (Roche) et de PCR quantitative. Un témoin positif de PCR (GAPDH), exprimé constitutivement, est réalisé en parallèle afin de normaliser les résultats obtenus.
# [3] = system: Staphylococcus aureus CIP4.83; test: Determination of minimal inhibitory (CMI) and minimal bactericidal (CMB) concentration, liquid micro-method then subculture on agar; type: cell-based; conditions: for CMB / CMI / CMB (DMSO dilution) / CMI (DMSO dilution): S. aureus; for CMB / CMI: purified sample dissolved in DMSO; for CMB (DMSO dilution): real dilution (DMSO) at the CMB point; for CMI (DMSO dilution): real dilution (DMSO) at the CMI point
# Procedure: • L'échantillon « Extrait CCV » obtenu tel que dans l'exemple 1 est titré à 150 µg/ml en Célastrol, 40 µg/ml en Tingénine A et 20 µg/ml en Tingénine B, dissouts dans du pentylène glycol 100 %. Pour les besoins du dosage, il est dilué à 2 % dans de l'eau pour préparation injectable (PPI). • L'échantillon « Tingénine A » est titré à 150 µg/ml dans du DMSO 10 %. • L'échantillon « Tingénine B » est titré à 150 µg/ml du DMSO 10 %. • L'échantillon « Célastrol » est titré à 150 µ/ml dans du DMSO 10 %.
# Les souches bactériennes utilisées sont : • Staphylococcus aureus CIP4.83 entretenue sur milieu gelosé Trypticase-soja à 36 +/- 1 °C. • Fusobacterium nucleatum CIP101130T entretenue sur milieu gélosé Columbia + 5 % de sang de mouton à 36+/-1 °C en anaérobiose
# La détermination de la Concentration Minimale Inhibitrice (CMI) est réalisée par micro-méthode en milieu liquide. 100 µL de milieu de culture Muller Hinton sont déposés dans chaque puits d'une microplaque de 96 puits stérile. 100 µL de l'échantillon à tester sont déposés dans la colonne 1 de la microplaque (deux puits par extrait à tester). Des dilutions de raison 2 sont réalisées de la façon suivante : 100 µL sont prélevés dans les puits de la colonne 1 puis ajouté et mélangés aux puits de la colonne 2. Cette opération est répétée jusqu'à la colonne 10. Les 100 µL prélevés dans la colonne 10 sont éliminés. La colonne 11 est utilisée comme témoin positif (milieu de culture + bactérie à tester). La colonne 12 est utilisée comme témoin négatif (milieu de culture seul). La microplaque est ensemencée (hors témoin négatif de croissance). Après une incubation de 16 à 24 h l'observation de la croissance à l'œil nu permet de déterminer une CMI (la plus faible concentration en extrait qui inhibe la croissance).
# La détermination de la Concentration Minimale Bactéricide (CMB) est réalisée par repiquage des microplaques CMI sur un milieu Muller Hinton gélosé. Après incubation, la CMB correspond à la plus faible concentration de l'extrait testé pour laquelle on observe une absence de croissance.
# Dans les tableaux 1 et 2 présentant les résultats comparatifs des différents échantillons testés sont indiqués : • 1. Pour l'extrait CCV, les CMI/CMB sont des concentrations équivalentes en célastrol. En effet, cet extrait est une solution qui contient majoritairement du Célastrol (Célastrol > 50 %, Tingénine A > 5 % et Tingénine B > 5 %). L'extrait est dissout dans du Pentylène Glycol (PG), on a le % (P/P) correspondant à la dilution réelle au point de CMI ou de CMB, et on en déduit la concentration équivalente en Célastrol grâce au titre (150 µg/ml) quantifié par HPLC. • 2. Pour les échantillons de Célastrol, de Tingénine A et de Tingénine B purifiés et dissouts dans le DMSO, le % mentionné correspond à la dilution réelle au point de CMI ou de CMB. • 3. Pour les solvants de contrôle DMSO et Pentylène Glycol (PG) testés en parallèle, le % correspond à la dilution réelle au point de CMI ou de CMB.
# lymphocytes T CD4+ = test: Anti-TH17 activity: cytokines secreted by CD4+ T lymphocytes activated with anti-CD3/anti-CD28 (Multiplex Immunoassays); type: cell-based, humaines; conditions: 2 µM
# Procedure: L'échantillon « Extrait CCV » est obtenu tel que dans l'exemple 1 et est dilué dans 0,4 % DMSO afin d'obtenir les différentes concentrations finales suivantes après ajout dans les puits : • Extrait 2 (titré en Célastrol à 9 ng/ml); • Extrait 3 (titré en Célastrol à 30 ng/ml); et • Extrait 4 (titré en Célastrol à 90 ng/ml).
# Les échantillons contrôles sont les suivants : • Contrôle négatif 1 (solution DMSO à 0,4 %); et • Contrôle positif 5 : dexaméthasone (Dexa) à 2 µM (concentration finale dans le puits).
# Les cellules T humaines ont été isolées à partir de cellules mononuclées de sang de deux donneurs sur Ficoll Paque plus (selon le protocole du fabricant). Les cellules CD4+ sont isolées par tri positif (Kit Miltenyi Biotec (CD4) et colonne LS) et remises en suspension dans du milieu de culture RPMI (Sigma Aldrich : L-Glutamine et sérum foetal bovin à 10 %) additionné de […] de streptomycine et 100 U/mL de pénicilline.
# Les Lymphocytes en suspension sont répartis dans des puits de microplaques. […]
# La quantité de cytokine IL17A, IFN gamma, IL22, TNF alpha et IL6 sécrétée dans le surnageant de culture des lymphocytes est ensuite mesurée par la méthode Multiplex Immunoassays (tel que notamment décrit dans Jager et al. Clin. Diagn. Lab. Immunol. 2003, 10(1), 133-139).
Compound,CMB [3],CMI [3],CMB (DMSO dilution) [3],CMI (DMSO dilution) [3],also measured
CC1=C(O)C(=O)C=C2C1=CC=C1[C@@]2(C)CC[C@@]2(C)[C@@H]3C[C@](C)(C(=O)O)CC[C@]3(C)CC[C@]12C [Célastrol],"0,59 µg/ml","0,29 µg/ml","0,04%","0,01%","inhibition de l'expression du marqueur MMP9 ([1]; at 30 ng/ml): ~40%; expression des marqueurs IL-8, DEFBA4, S100A7, IL-36 gamma et MMP9 ([2]; 10, 30 and 100 ng/mL, 24h stimulation): inhibition claire, significative et dose dépendante"
"CC(C)(C)c1nc2c3ccc(F)cc3c3c(=O)[nH]ccc3c2[nH]1 [inhibiteur JAK, JAK Inhibitor I]",–,–,–,–,"augmentation de la sécrétion de MMP-9 ([1]; 10 µM): 60%; inhibition at 10 µM ([1]; 10 µM, read-out: inhibition de la sécrétion d'IL-8): 69%; inhibition at 10 µM ([1]; 10 µM, read-out: inhibition de la sécrétion de β-défensine-2): 82%; expression de l'IL-36 gamma et de la MMP9 ([2]; 10 µM): n'inhibe ni l'IL-36 gamma ni la MMP9; expression d'IL8, de DEFB4A et de S100A7 ([2]; 10 µM, versus negative control): diminution de l'expression"
C[C@@H]1C[C@H]2[C@@H]3CCC4=CC(=O)C=C[C@]4(C)[C@@]3(F)[C@@H](O)C[C@]2(C)[C@@]1(O)C(=O)CO [dexaméthasone],–,–,–,–,"surexpression des cytokines IL-17A, IFN gamma, IL-22, TNF alpha et IL-6 (lymphocytes T CD4+): inhibe la surexpression de toutes les cytokines"
CC1=C(O)C(=O)C=C2C1=CC=C1[C@@]2(C)CC[C@@]2(C)[C@@H]3C[C@@H](C)C(=O)C[C@]3(C)CC[C@]12C [Tingénine A],"2,34 µg/ml","1,17 µg/ml","0,08%","0,08%",–
"CC1=C(O)C(=O)C=C2C1=CC=C1[C@@]2(C)CC[C@@]2(C)[C@@H]3C[C@@H](C)C(=O)[C@@H](O)[C@]3(C)CC[C@]12C [Tingénine B, 22 béta-Hydroxy-tingénone]","1,17 µg/ml","0,59 µg/ml","0,08%","0,04%","activité anti S. aureus, fois supérieure à celle de la Tingénine A ([3]; ratio versus Tingénine A): 2-4 fois"
